Experimental data taken from PubChem BioAssay (NCI).
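Protocol summary: plate cells (96-well), add compound at 5 concentrations, incubate 48 h, interpolate endpoints linearly. TGI: concentration producing complete growth inhibition.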

Key:
Assay in all cases: NCI anticancer screen, dose series, 48 h
MDA-MB-231 breast = system: MDA-MB-231 breast
M14 melanoma = system: M14 melanoma
NCI-H460 lung = system: NCI-H460 lung
MALME-3M melanoma = system: MALME-3M melanoma
U251 CNS = system: U251 CNS
KM12 colon = system: KM12 colon
SF-295 CNS = system: SF-295 CNS
PC-3 prostate = system: PC-3 prostate
MDA-N = system: MDA-N
CCRF-CEM leukemia = system: CCRF-CEM leukemia
HCC-2998 colon = system: HCC-2998 colon
COLO 205 colon = system: COLO 205 colon
SN12C renal = system: SN12C renal
OVCAR-5 ovarian = system: OVCAR-5 ovarian
SNB-75 CNS = system: SNB-75 CNS
UO-31 renal = system: UO-31 renal
MDA-MB-435 = system: MDA-MB-435
UACC-62 melanoma = system: UACC-62 melanoma
HS 578T breast = system: HS 578T breast
T-47D breast = system: T-47D breast

SMILES	TGI (MDA-MB-231 breast) [µM]	TGI (M14 melanoma) [µM]	TGI (NCI-H460 lung) [µM]	TGI (MALME-3M melanoma) [µM]	TGI (U251 CNS) [µM]	TGI (KM12 colon) [µM]	TGI (SF-295 CNS) [µM]	TGI (PC-3 prostate) [µM]	TGI (MDA-N) [µM]	TGI (CCRF-CEM leukemia) [µM]	TGI (HCC-2998 colon) [µM]	TGI (COLO 205 colon) [µM]	TGI (SN12C renal) [µM]	TGI (OVCAR-5 ovarian) [µM]	TGI (SNB-75 CNS) [µM]	TGI (UO-31 renal) [µM]	TGI (MDA-MB-435) [µM]	TGI (UACC-62 melanoma) [µM]	TGI (HS 578T breast) [µM]	TGI (T-47D breast) [µM]
O=C1N(Cc2ccccc2)C2CSCC2N1Cc1ccccc1 (stereo not given)	68.3	33.7	55.8	46.3	> 100	> 100	> 100	> 100	80	> 100	62.9	32.8	> 100	> 100	> 100	93.5	51.5	79.2	66.5	91.8
C[C@@H]1CC[C@H]2[C@H]1[C@H]1[C@@H](CC[C@]2(C)N=C=S)C1(C)C	52.7	78.1	47.3	52.8	30.5	40	46.9	> 100	23.4	30.9	83.4	33.3	44.7	> 100	> 100	> 100	96.6	42.6	> 100	> 100
